Measured values as given in patent publication US11707444B2, “Antiviral composition for SARS-CoV-2 containing cannabinoids as active ingredient” (priority 2020, dated 2023).
Where two headings read alike, the source gives them in different places.

What was measured:
SARS-CoV-2 = assay: microbe, parasite or virus in culture; assay type: cell-based, SARS-CoV-2 (βCoV/KOR/KCDC03/2020)
CBR2 = CBR2 (Homo sapiens, UniProt P34972); conditions: reported (Pertwee 2008); cited from earlier work
[1] = cited from earlier work
[2] = 0.3 mg/kg/day, report; cited from earlier work
[3] = 100 mg of CBD, healthy volunteers, reported; cited from earlier work
Vero cells = assay: Vero cell viability in the dose-response curve assay; assay type: cell-based
Experimental: Dose-response curve (DRC) analysis was performed according to a conventionally known method (Jeon, S., Ko, M., Lee, J., Choi, I., Byun, S Y, Park, S., Shum, D., and Kim, S. (2020). Identification of antiviral drug candidates against SARS-CoV-2 from FDA-approved drugs. Antimicrobial Agents and Chemotherapy). Briefly, the Vero cells were seeded at 1.2×10^4 cells per well in DMEM containing 1× Antibiotic-Antimycotic solution (Gibco) and 2% FBS in a 384-well, μClear plate (Greiner Bio-One) and maintained for 24 h. After that, the cells were treated twice with compounds in the concentration range of 0.05-100 μM. A 9-point dose-response curve (DRC) was generated. For viral infection, the plate was transferred to a BSL-3 isolation facility and SARS-CoV-2 was added to an MOI value of 0.0125. Next, the cells were fixed at 24 hpi with 4% PFA and measured using the immunofluorescence method Operetta (Perkin Elmer).
Images acquired using software within the Pasteur Institute in Korea were used to estimate the infection rate and cell number, and antiviral activity was normalized to negative (0.5% DMSO) and positive controls (mock). The dose-response curve (DRC) was measured using the sigmoidal dose-response model Y=Bottom+(Top−Bottom)/(1+(IC50/X)^Hillslope) using Prism or 7XLfit 4 software. Finally, IC50 values were measured for curves fitted to the normalized activity data set. […]

[4] = Severe acute respiratory syndrome coronavirus 2, Vero; read-out: IC50, antiviral activity against SARS-CoV-2

CBR2, sequence (P34972 whole entry): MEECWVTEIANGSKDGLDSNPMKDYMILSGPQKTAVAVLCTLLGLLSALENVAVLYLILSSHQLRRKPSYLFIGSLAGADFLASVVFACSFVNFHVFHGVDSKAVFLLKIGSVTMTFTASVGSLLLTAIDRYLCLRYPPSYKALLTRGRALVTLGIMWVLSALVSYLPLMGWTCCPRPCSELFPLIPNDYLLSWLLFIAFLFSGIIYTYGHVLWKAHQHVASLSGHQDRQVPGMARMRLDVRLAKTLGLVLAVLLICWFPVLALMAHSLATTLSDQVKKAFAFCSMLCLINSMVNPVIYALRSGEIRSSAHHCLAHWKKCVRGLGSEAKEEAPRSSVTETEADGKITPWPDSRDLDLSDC

CCCCCc1cc2c(c(O)c1C(=O)O)[C@@H]1C=C(C)CC[C@H]1C(C)(C)O2 [Compound T3, Δ9-Tetrahydrocannabinolic acid]
IC50 (SARS-CoV-2; [4]): 13.2 µM

CCCCCc1cc(O)c2c(c1)OC(C)(C)[C@@H]1CCC(C)=C[C@@H]21 [Compound T4, Δ^9-Tetrahydrocannabinol]
action at CBR2 (CBR2): partial agonist
IC50 (SARS-CoV-2; [4]): 10.2 µM

CCCCCc1cc(O)c2c(c1)OC(C)(C)c1ccc(C)cc1-2 [Compound T7, Cannabinol]
IC50 (SARS-CoV-2; [4]): 11.1 µM

C=C(C)[C@@H]1CCC(C)=C[C@H]1c1c(O)cc(CCCCC)cc1O [Compound T22, Cannabidiol]
dose reported to be safe [1]: up to 60 mg per day
effect in Crohn's disease [2]: effective
safety and tolerability [3]: safe and tolerable
IC50 (SARS-CoV-2; [4]): 7.91 µM
inhibition at 12.5 µM (SARS-CoV-2; Severe acute respiratory syndrome coronavirus 2; at 12.50 μM, Vero cells): 99.2%
Vero cell viability (Vero cells; at 12.50 μM): 97.46%
host cell viability (Vero cells; at 50 μM): decreased sharply

C=C(C)[C@@H]1CCC(C)=C[C@H]1c1c(O)cc(CCCCC)c(C(=O)O)c1O [Compound T23, Cannabidiolic acid]
IC50 (SARS-CoV-2; [4]): 37.6 µM

CCN(CC)CCCC(C)Nc1ccnc2cc(Cl)ccc12 (stereo not drawn) [chloroquine, reference compound]
IC50 (SARS-CoV-2; [4]): 8.17 µM

Cc1cccc(C)c1OCC(=O)N[C@@H](Cc1ccccc1)[C@@H](O)C[C@H](Cc1ccccc1)NC(=O)[C@H](C(C)C)N1CCCNC1=O [lopinavir, reference compound]
IC50 (SARS-CoV-2; [4]): 9.78 µM

CCC(CC)COC(=O)[C@H](C)N[P@](=O)(OC[C@H]1O[C@@](C#N)(c2ccc3c(N)ncnn23)[C@H](O)[C@@H]1O)Oc1ccccc1 [remdesivir, reference compound]
IC50 (SARS-CoV-2; Severe acute respiratory syndrome coronavirus 2, Vero, read-out: IC50, antiviral activity against SARS-CoV-2): 13.2 µM
